Converted amounts (≈) assume the structure as drawn. The source made the active and inactive calls. The rule behind the calls is not given here.
Tests used:
MCF7 [1] = experiment: Potency index, ratio of curcumin IC50 to compound IC50 for ER/PR positive human MCF7 cells; assay type: functional
Mus musculus [2] = experiment: Toxicity in nu/nu mouse assessed as effect on food consumption at 5 to 50 mg/kg, po administered once daily for 32 days measured during compound dosing; assay type: organism-based; details: in vivo, 768 h
T47D [3] = experiment: Potency index, ratio of curcumin IC50 to compound IC50 for ER/PR positive human T47D cells; assay type: functional
Mus musculus [4] = experiment: Toxicity in nu/nu mouse assessed as change in total protein level at 5 to 50 mg/kg, po administered once daily for 32 days measured post last dose; assay type: organism-based; details: in vivo, 768 h
[5] = Solubility of the compound in ethanol after 24 hrs by shake-flask method; assay type: physicochemical; details: ethanol
MDA-MB-453 [6] = experiment: Potency index, ratio of curcumin IC50 to compound IC50 for HER2 positive human MDA-MB-453 cells; assay type: functional
Mus musculus [7] = experiment: Toxicity in nu/nu mouse assessed as change in body weight at 50 mg/kg, po administered once daily for 32 days in presence of doxorubicin; assay type: organism-based; details: in vivo, 768 h
BT-474 [8] = experiment: Antiproliferative activity against HER2 positive human BT474 cells after 24 hrs by MTT assay; assay type: functional, cell-based; details: BT-474, 24 h
[9] = Solubility of the compound in water after 24 hrs by shake-flask method; assay type: physicochemical
SK-BR-3 [10] = experiment: Potency index, ratio of curcumin IC50 to compound IC50 for HER2 positive human SKBR3 cells; assay type: functional
Mus musculus [11] = experiment: Toxicity in nu/nu mouse assessed as hematological changes at 50 mg/kg, po administered once daily for 32 days in presence of doxorubicin; assay type: organism-based; details: in vivo, 768 h
MDA-MB-468 [12] = experiment: Potency index, ratio of curcumin IC50 to compound IC50 for human MDA-MB-468 cells; assay type: functional
MDA-MB-468 [13] = experiment: Antiproliferative activity against human MDA-MB-468 cells after 24 hrs by MTT assay; assay type: functional, cell-based; details: MDA-MB-468, 24 h
MDA-MB-231 [14] = experiment: Potency index, ratio of test compound to curcumin for anti-tumor activity against human MDA-MB-231 cells xenografted in nu/nu mouse; assay type: functional
[15] = Stability of the compound in culture media measured after 72 hrs in presence of curcumin by HPLC method
HCT-116 = experiment: Antiproliferative activity against human HCT116 cells up to 72 hrs by MTT assay; assay type: functional, cell-based; details: HCT-116, 72 h
MDA-MB-468 [16] = experiment: Potency index, ratio of curcumin IC50 to compound IC50 for doxorubicin-resistant human MDA-MB-468 cells; assay type: functional
MCF7 [17] = experiment: Antiproliferative activity against ER/PR positive human MCF7 cells after 24 hrs by MTT assay; assay type: functional, cell-based; details: MCF7, 24 h
Hs-578T [18] = experiment: Antiproliferative activity against human Hs578T cells after 24 hrs by MTT assay; assay type: functional, cell-based
MDA-MB-231 [19] = experiment: Anti-tumor activity against human MDA-MB-231 cells xenografted in nu/nu mouse assessed as reduction in tumor weight at 50 mg/kg, po administered once daily for 32 days in presence of doxorubicin; assay type: functional; parameters: scale not given: the % may be the effect or the level left
MDA-MB-157 [20] = experiment: Potency index, ratio of curcumin IC50 to compound IC50 for human MDA-MB-157 cells; assay type: functional
PC-3 = experiment: Antiproliferative activity against human PC3 cells up to 72 hrs by MTT assay; assay type: functional, cell-based; details: PC-3, 72 h
Mus musculus [21] = experiment: Toxicity in nu/nu mouse assessed as change in blood uric acid level at 5 to 50 mg/kg, po administered once daily for 32 days measured post last dose; assay type: organism-based; details: in vivo, 768 h
MDA-MB-231 [22] = experiment: Induction of apoptosis in human MDA-MB-231 cells; assay type: functional, cell-based
Mus musculus [23] = experiment: Toxicity in nu/nu mouse assessed as change in serum creatinine level at 5 to 50 mg/kg, po administered once daily for 32 days measured post last dose; assay type: organism-based; details: in vivo, 768 h
MDA-MB-231 [24] = experiment: Cell cycle arrest in human MDA-MB-231 cells assessed as increase in G2/M population by propidium iodide staining based flow cytometry; assay type: functional
MDA-MB-231 [25] = experiment: Potency index, ratio of curcumin IC50 to compound IC50 for human MDA-MB-231 cells; assay type: functional
Mus musculus [26] = experiment: Toxicity in nu/nu mouse assessed as change in blood glucose level at 5 to 50 mg/kg, po administered once daily for 32 days measured post last dose; assay type: organism-based; details: in vivo, 768 h
MDA-MB-231 [27] = experiment: Anti-tumor activity against human MDA-MB-231 cells xenografted in nu/nu mouse assessed as reduction in tumor weight at 50 mg/kg, po administered once daily for 32 days; assay type: functional; parameters: scale not given: the % may be the effect or the level left
MDA-MB-231 [28] = experiment: Induction of autophagy in human MDA-MB-231 cells; assay type: functional, cell-based
Mus musculus [29] = experiment: Acute-toxicity in nu/nu mouse assessed as behavioral changes at 500 mg/kg, po administered once daily for 5 days measured for 21 days; assay type: organism-based; details: in vivo, 504 h
T47D [30] = experiment: Antiproliferative activity against ER/PR positive human T47D cells after 24 hrs by MTT assay; assay type: functional, cell-based
Mus musculus [31] = experiment: Toxicity in nu/nu mouse assessed as change in blood urea nitrogen level at 5 to 50 mg/kg, po administered once daily for 32 days measured post last dose; assay type: organism-based; details: in vivo, 768 h
Mus musculus [32] = experiment: Toxicity in nu/nu mouse assessed as changes in body weight at 5 to 50 mg/kg, po administered once daily for 32 days measured every 4 days during compound dosing; assay type: organism-based; details: in vivo
MDA-MB-468 [33] = experiment: Antiproliferative activity against doxorubicin-resistant human MDA-MB-468 cells after 24 hrs by MTT assay; assay type: functional, cell-based; details: MDA-MB-468, 24 h
Mus musculus [34] = experiment: Toxicity in nu/nu mouse assessed as behavioral changes at 50 mg/kg, po administered once daily for 32 days in presence of doxorubicin; assay type: organism-based; details: in vivo, 768 h
MDA-MB-231 [35] = experiment: Anti-tumor activity against human MDA-MB-231 cells xenografted in nu/nu mouse assessed as reduction in tumor size at 50 mg/kg, po administered once daily for 32 days measured every 4 days during compound dosing relative to control; assay type: functional; parameters: scale not given: the % may be the effect or the level left
MDA-MB-231 [36] = experiment: Effect on heme oxygenase-1 expression in human MDA-MB-231 cells by microarray analysis; assay type: functional, cell-based
MDA-MB-157 [37] = experiment: Antiproliferative activity against human MDA-MB-157 cells after 24 hrs by MTT assay; assay type: functional, cell-based; details: MDA-MB-157, 24 h
Hs-578T [38] = experiment: Potency index, ratio of curcumin IC50 to compound IC50 for human Hs578T cells; assay type: functional
SK-BR-3 [39] = experiment: Antiproliferative activity against HER2 positive human SKBR3 cells after 24 hrs by MTT assay; assay type: functional, cell-based; details: SK-BR-3, 24 h
MDA-MB-453 [40] = experiment: Antiproliferative activity against HER2 positive human MDA-MB-453 cells after 24 hrs by MTT assay; assay type: functional, cell-based; details: MDA-MB-453, 24 h
Mus musculus [41] = experiment: Toxicity in nu/nu mouse assessed as behavioral changes at 5 to 50 mg/kg, po administered once daily for 32 days measured during compound dosing; assay type: organism-based; details: in vivo, 768 h
Mus musculus [42] = experiment: Acute-toxicity in nu/nu mouse assessed as changes in body weight at 500 mg/kg, po administered once daily for 5 days measured for 21 days; assay type: organism-based; details: in vivo, 504 h
MDA-MB-231 [43] = experiment: Antiproliferative activity against human MDA-MB-231 cells up to 72 hrs by MTT assay; assay type: functional, cell-based; details: MDA-MB-231, 72 h
MDA-MB-231 [44] = experiment: Antiproliferative activity against human MDA-MB-231 cells at 1 to 3 uM in presence of doxorubicin by MTT assay; assay type: functional, cell-based
Mus musculus [45] = experiment: Toxicity in nu/nu mouse assessed as change in serum albumin level at 5 to 50 mg/kg, po administered once daily for 32 days measured post last dose; assay type: organism-based; details: in vivo, 768 h
BT-474 [46] = experiment: Potency index, ratio of curcumin IC50 to compound IC50 for HER2 positive human BT474 cells; assay type: functional

**Q.** With `COc1cc(/C=C/C(=O)/C=C(O)/C=C/c2ccc(OC(=O)C(C)(CO)CO)c(OC)c2)ccc1OC(=O)C(C)(CO)CO` as the molecule, how does the “Ratio IC50” value (MCF7 [1]) read?
**A.** 2.5 - 8.6

**Q.** And the Activity (Mus musculus [2])?
**A.** Non-Toxic

**Q.** And the “Ratio IC50” value (T47D [3])?
**A.** 2.5 - 8.6

**Q.** And the Activity (Mus musculus [4])?
**A.** Non-Toxic

**Q.** What about the solubility thermodynamic at 24 h [5] of the same molecule?
**A.** 13800 µg/mL (≈ 23.1 mM)

**Q.** What about the “Ratio IC50” value (MDA-MB-453 [6]) of the same molecule?
**A.** 2.5 - 8.6

**Q.** What about the Activity (Mus musculus [7]) of the same molecule?
**A.** Non-Toxic

**Q.** What about the IC50 (BT-474 [8]) of the same molecule?
**A.** 6.15 µM

**Q.** What about the solubility thermodynamic at 24 h [9] of the same molecule?
**A.** 21.1 µg/mL (≈ 0.0351 mM)

**Q.** What about the “Ratio IC50” value (SK-BR-3 [10]) of the same molecule?
**A.** 2.5 - 8.6

**Q.** What about the Activity (Mus musculus [11]) of the same molecule?
**A.** Non-Toxic

**Q.** And the “Ratio IC50” value (MDA-MB-468 [12])?
**A.** 3.4 - 7.4

**Q.** And the IC50 (MDA-MB-468 [13])?
**A.** 6.13 µM

**Q.** And the Ratio (MDA-MB-231 [14])?
**A.** 10

**Q.** What about the Stability [15] of the same molecule?
**A.** Stable

**Q.** And the IC50 (HCT-116)?
**A.** 3.91 µM

**Q.** And the “Ratio IC50” value (MDA-MB-468 [16])?
**A.** 10

**Q.** What about the IC50 (MCF7 [17]) of the same molecule?
**A.** 6.13 µM

**Q.** What about the IC50 (Hs-578T [18]) of the same molecule?
**A.** 7.96 µM

**Q.** And the Activity (MDA-MB-231 [19])?
**A.** 80%

**Q.** What about the “Ratio IC50” value (MDA-MB-157 [20]) of the same molecule?
**A.** 3.4 - 7.4

**Q.** What about the IC50 (PC-3) of the same molecule?
**A.** 3.9 µM

**Q.** What about the Activity (Mus musculus [21]) of the same molecule?
**A.** Non-Toxic

**Q.** And the Activity (MDA-MB-231 [22])?
**A.** Active

**Q.** And the Activity (Mus musculus [23])?
**A.** Non-Toxic

**Q.** And the Activity (MDA-MB-231 [24])?
**A.** Active

**Q.** And the “Ratio IC50” value (MDA-MB-231 [25])?
**A.** 6.1

**Q.** And the Activity (Mus musculus [26])?
**A.** Non-Toxic

**Q.** What about the Activity (MDA-MB-231 [27]) of the same molecule?
**A.** 60%

**Q.** And the Activity (MDA-MB-231 [28])?
**A.** Active

**Q.** And the Activity (Mus musculus [29])?
**A.** Non-Toxic

**Q.** And the IC50 (T47D [30])?
**A.** 19.3 µM

**Q.** And the Activity (Mus musculus [31])?
**A.** Non-Toxic

**Q.** What about the Activity (Mus musculus [32]) of the same molecule?
**A.** Non-Toxic

**Q.** And the IC50 (MDA-MB-468 [33])?
**A.** 6.52 µM

**Q.** What about the Activity (Mus musculus [34]) of the same molecule?
**A.** Non-Toxic

**Q.** What about the Activity (MDA-MB-231 [35]) of the same molecule?
**A.** 60%

**Q.** And the Activity (MDA-MB-231 [36])?
**A.** Active

**Q.** What about the IC50 (MDA-MB-157 [37]) of the same molecule?
**A.** 9.23 µM

**Q.** What about the “Ratio IC50” value (Hs-578T [38]) of the same molecule?
**A.** 3.4 - 7.4

**Q.** And the IC50 (SK-BR-3 [39])?
**A.** 6.39 µM

**Q.** And the IC50 (MDA-MB-453 [40])?
**A.** 3.97 µM

**Q.** And the Activity (Mus musculus [41])?
**A.** Non-Toxic

**Q.** What about the Activity (Mus musculus [42]) of the same molecule?
**A.** Non-Toxic

**Q.** And the IC50 (MDA-MB-231 [43])?
**A.** 2.67 µM

**Q.** What about the Activity (MDA-MB-231 [44]) of the same molecule?
**A.** Active

**Q.** What about the Activity (Mus musculus [45]) of the same molecule?
**A.** Non-Toxic

**Q.** And the “Ratio IC50” value (BT-474 [46])?
**A.** 2.5 - 8.6

Reference: ChEMBL document CHEMBL4038282 (Eur J Med Chem, 2017)
